Series [1] is described as follows: Particle size distribution using a Malvern instrument. The class given is physicochemical. An excerpt:
The D10, D50, and D90 values are useful ways for indicating a particle size distribution. D90 is the size value where at least 90 volume percent of the particles have a size smaller than the said value; Likewise D10 refers to 10 volume percent of the particles having a size smaller than the said value. D50 refers to at least 50 volume percent of the particles having a size smaller than the said value and D[4,3] value refers to the mean particle size. Methods for determining D10, D50 D90 and D[4,3] include laser light diffraction, such as using equipment sold by Malvern Instruments Ltd., Malvern, Worcestershire, United Kingdom. Other types of equipment may be used, as is known in the art.
The premixes of Example 1 and Example 2 are analyzed for particle size distribution using a Malvern instrument and the results are below: […]

Series [2] can be described thus: Glass transition temperature (Tg) by differential scanning calorimetry. It is filed as physicochemical. The procedure:
The glass transition temperature (Tg) is determined for premixes using differential scanning calorimetry and the results are below:
The glass transition temperatures of the premix compositions are greater than that of dexlansoprazole (amorphous).
(In DSC, transitions show as peaks or steps in heat flow.)

In series [1], `Cc1c(OCC(F)(F)F)ccnc1C[S@@+]([O-])c1nc2ccccc2[nH]1` [Amorphous dexlansoprazole, (+)-2-[(R)-{[3-methyl-4-(2,2,2-trifluoroethoxy)pyridin-2-yl]methyl}sulfinyl]-1H-benzimidazole] came in with a D10 of 9.061 μm, a D50 of 22.182 μm and a D90 of 42.598 μm. Further, the “Tg (glass transition temperature)” value in series [2] was 55.48 °C.

The values above are taken from patent US20120231073A1, “DEXLANSOPRAZOLE COMPOSITIONS” (DR. REDDY'S LABORATORIES, INC., priority 2008, published 2012).
